Source: US11299478B2, “2-cyanopyrimidin-4-yl carbamate or urea derivative or salt thereof, and pharmaceutical composition including same” (HANLIM PHARMACEUTICAL CO., LTD., priority 2018, dated 2022)

Key:
Assay type in all cases: biochemical
[1] = molecular target: T1, cathepsin K (Homo sapiens, UniProt P43235); experiment: Inhibitory activity assay against cathepsin K (enzyme assay); details: Z-Phe-Arg-AMC 10 μM, enzyme 1 nM, pH 5.5, 30 minutes
T1 sequence (P43235 115-329): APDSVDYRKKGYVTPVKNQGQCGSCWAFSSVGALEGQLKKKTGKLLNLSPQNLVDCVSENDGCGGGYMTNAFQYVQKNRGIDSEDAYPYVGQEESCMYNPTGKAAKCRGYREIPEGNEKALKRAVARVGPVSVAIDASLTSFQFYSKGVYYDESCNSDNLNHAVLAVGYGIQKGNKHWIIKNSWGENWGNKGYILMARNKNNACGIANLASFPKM
Method in brief: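 Fluorogenic assay with 1 nM cathepsin K and 10 μM Z-Phe-Arg-AMC in pH 5.5 buffer (50 mM MES, 2 mM DTT, 2.5 mM EDTA, 0.01% Triton X-100, 10% DMSO). Ten compound concentrations, 10.0 to 0.000508 μM; 30 min reaction, ex 355/em 460 nm; IC50 by 4-parameter logistic fit.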

[2] = molecular target: cathepsin B (Homo sapiens, UniProt P07858); experiment: Inhibitory activity assay against cathepsin B (enzyme assay); details: Z-Arg-Arg-AMC 40 μM, enzyme 1 nM, pH 6.0, 90 minutes
Method in brief: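 1 nM enzyme with 40 μM Z-Arg-Arg-AMC and compound (10.0 μM down to 0.000508 μM, 10 points) in pH 6.0 buffer of 50 mM MES, 5 mM DTT, 2.5 mM EDTA, 0.005% Polysorbate 20, 10% DMSO. Fluorescence (340/460 nm) read after 90 min; IC50 by 4-parameter logistic fit.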

[3] = molecular target: cathepsin L (Homo sapiens, UniProt P07711); experiment: Inhibitory activity assay against cathepsin L (enzyme assay); details: Z-Phe-Arg-AMC 2 μM, enzyme 3 nM, pH 5.5, 30 minutes
cathepsin L, sequence (P07711 114-333, species assumed): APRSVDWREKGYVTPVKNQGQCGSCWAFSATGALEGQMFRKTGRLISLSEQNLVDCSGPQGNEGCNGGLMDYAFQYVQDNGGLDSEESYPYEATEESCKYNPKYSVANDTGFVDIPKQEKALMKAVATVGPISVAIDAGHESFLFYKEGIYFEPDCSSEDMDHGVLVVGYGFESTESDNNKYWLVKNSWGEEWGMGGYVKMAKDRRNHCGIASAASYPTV
Method in brief: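 Enzyme at 3 nM with 2 μM Z-Phe-Arg-AMC in 50 mM MES pH 5.5, 2.5 mM DTT, 2.5 mM EDTA, 0.005% Polysorbate 20, 10% DMSO; 30 min reaction, AMC fluorescence 340/460 nm. Ten-point series 10.0 μM to 0.000508 μM; IC50 by 4-parameter logistic fit.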

[4] = molecular target: cathepsin S (Homo sapiens, UniProt P25774); experiment: Inhibitory activity assay against cathepsin S (enzyme assay); details: Z-Phe-Arg-AMC 70 μM, enzyme 3 nM, pH 6.5, 45 minutes
cathepsin S, sequence (P25774 115-331, species assumed): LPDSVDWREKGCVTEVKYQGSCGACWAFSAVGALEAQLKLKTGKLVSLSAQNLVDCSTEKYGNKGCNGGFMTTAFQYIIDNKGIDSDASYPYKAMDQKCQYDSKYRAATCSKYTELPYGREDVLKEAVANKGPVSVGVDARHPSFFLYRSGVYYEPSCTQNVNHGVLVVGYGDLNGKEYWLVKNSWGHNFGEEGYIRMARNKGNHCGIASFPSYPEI
Method in brief: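 Cathepsin S (3 nM final) with Z-Phe-Arg-AMC substrate (70 μM final) in pH 6.5 buffer of 50 mM MES, 2.5 mM DTT, 1.0 mM EDTA, 0.001% BSA, 10% DMSO; compound 10.0 μM down to 0.000508 μM, 10 points. Fluorescence (ex 340/em 460 nm) after 45 min; IC50 by 4-parameter logistic fit.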

SMILES | IC50 [1] | IC50 [2] | IC50 [3] | IC50 [4]
N#Cc1nccc(C2(NC(=O)OCc3cccc(F)c3)CCCC2)n1 [Example 7, 3-fluorobenzyl (1-(2-cyanopyrimidin-4-yl)cyclopentyl)carbamate] | 56.3 nM | > 10000 nM | 3550 nM | > 10000 nM
N#Cc1nccc(C2(NC(=O)OCc3ccc(-c4ccc(F)nc4)cc3)CCCC2)n1 [Example 33, 4-(6-fluoropyridin-3-yl)benzyl (1-(2-cyanopyrimidin-4-yl)cyclopentyl)carbamate] | 1620 nM | > 10000 nM | > 10000 nM | > 10000 nM
N#Cc1nccc(C2(NC(=O)Nc3ccc(-c4ccc(CCC(=O)O)cc4)cc3)CCCCC2)n1 [Example 131, 3-(4′-(3-(1-(2-cyanopyrimidin-4-yl)cyclohexyl)ureido)-[1,1′-biphenyl]-4-yl)propanoic acid] | 15.9 nM | > 10000 nM | > 10000 nM | 3930 nM
N#Cc1nccc(C2(NC(=O)OCc3cccc(F)c3)CCCCC2)n1 [Example 15, 3-fluorobenzyl (1-(2-cyanopyrimidin-4-yl)cyclohexyl)carbamate] | 45.5 nM | > 10000 nM | 1620 nM | 8600 nM
Cc1cccc(NC(=O)NC2(c3ccnc(C#N)n3)CCCC2)c1C [Example 64, 1-(1-(2-cyanopyrimidin-4-yl)cyclopentyl)-3-(2,3-dimethylphenyl)urea] | 75.9 nM | 5890 nM | 5510 nM | > 10000 nM
N#Cc1nccc(C2(NC(=O)Nc3ccccc3C(F)(F)F)CCCCC2)n1 [Example 92, 1-(1-(2-cyanopyrimidin-4-yl)cyclohexyl)-3-(2-(trifluoromethyl)phenyl)urea] | 40.9 nM | > 10000 nM | > 10000 nM | > 10000 nM
N#Cc1nccc(C2(NC(=O)Nc3ccc(-c4ccc(CC(=O)O)cc4)cc3)CCCCC2)n1 [Example 161, 2-(4′-(3-(1-(2-cyanopyrimidin-4-yl)cyclohexyl)ureido)-[1,1′-biphenyl]-4-yl)acetic acid] | 61.1 nM | > 10000 nM | > 10000 nM | > 10000 nM
N#Cc1nccc(C2(NC(=O)NCc3ccccc3F)CCCC2)n1 [Example 40, 1-(1-(2-cyanopyrimidin-4-yl)cyclopentyl)-3-(2-fluorobenzyl)urea] | 93.3 nM | > 10000 nM | 9230 nM | > 10000 nM
CS(=O)(=O)c1ccc(-c2ccc(NC(=O)NC3(c4ccnc(C#N)n4)CCCCC3)cc2F)cc1 [Example 167, 1-(1-(2-cyanopyrimidin-4-yl)cyclohexyl)-3-(2-fluoro-4′-(methylsulfonyl)-[1,1′-biphenyl]-4-yl)urea] | 8 nM | > 10000 nM | > 10000 nM | 1110 nM
N#Cc1nccc(C2(NC(=O)OCc3ccc(Br)cc3)CCCC2)n1 [Example 2, 4-bromobenzyl (1-(2-cyanopyrimidin-4-yl)cyclopentyl)carbamate] | 21.8 nM | > 10000 nM | > 10000 nM | > 10000 nM
N#Cc1nccc(C2(NC(=O)Nc3cc(C(F)(F)F)c(F)cc3F)CCCCC2)n1 [Example 106, 1-(1-(2-cyanopyrimidin-4-yl)cyclohexyl)-3-(2,4-difluoro-5-(trifluoromethyl)phenyl)urea] | 3.1 nM | > 10000 nM | > 10000 nM | > 10000 nM
N#Cc1nccc(C2(NC(=O)Nc3cccc(C(F)(F)F)c3)CCCCC2)n1 [Example 89, 1-(1-(2-cyanopyrimidin-4-yl)cyclohexyl)-3-(3-(trifluoromethyl)phenyl)urea] | 3.8 nM | > 10000 nM | 6890 nM | > 10000 nM
N#Cc1nccc(C2(NC(=O)NCc3ccc4c(c3)OCO4)CCCC2)n1 [Example 43, 1-(benzo[d][1,3]dioxol-5-ylmethyl)-3-(1-(2-cyanopyrimidin-4-yl)cyclopentyl)urea] | 462 nM | > 10000 nM | > 10000 nM | > 10000 nM
CN(C)CCNC(=O)c1ccc(-c2ccc(NC(=O)NC3(c4ccnc(C#N)n4)CCCCC3)cc2)cc1 [Example 159, 4′-(3-(1-(2-cyanopyrimidin-4-yl)cyclohexyl)ureido)-N-(2-(dimethylamino)ethyl)-[1,1′-biphenyl]-4-carboxamide] | 0.6 nM | 1890 nM | 4090 nM | > 10000 nM
N#Cc1nccc(C2(NC(=O)Nc3ccc(-c4ccc(C(=O)N5CCCC5)c(Cl)c4)cc3)CCCCC2)n1 [Example 150, 1-(3′-chloro-4′-(pyrrolidin-1-carbonyl)-[1,1′-biphenyl]-4-yl)-3-(1-(2-cyanopyrimidin-4-yl)cyclohexyl)urea] | 6.6 nM | > 10000 nM | 8920 nM | > 10000 nM
N#Cc1nccc(C2(NC(=O)NCc3ccccc3)CCCCC2)n1 [Example 88, 1-benzyl-3-(1-(2-cyanopyrimidin-4-yl)cyclohexyl)urea] | 31.6 nM | > 10000 nM | 7140 nM | > 10000 nM
N#Cc1nccc(C2(NC(=O)Nc3ccc(-c4ccc(C(F)(F)F)cc4)cc3)CCCCC2)n1 [Example 114, 1-(1-(2-cyanopyrimidin-4-yl)cyclohexyl)-3-(4′-(trifluoromethyl)-[1,1′-biphenyl]-4-yl)urea] | 69.7 nM | > 10000 nM | > 10000 nM | > 10000 nM
CS(=O)(=O)Nc1ccc(-c2ccc(NC(=O)NC3(c4ccnc(C#N)n4)CCCCC3)cc2)cc1 [Example 174, N-(4′-(3-(1-(2-cyanopyrimidin-4-yl)cyclohexyl)ureido)-[1,1′-biphenyl]-4-yl)methanesulfonamide] | 11.7 nM | > 10000 nM | > 10000 nM | > 10000 nM
N#Cc1nccc(C2(NC(=O)Nc3cccc4ccccc34)CCCC2)n1 [Example 74, 1-(1-(2-cyanopyrimidin-4-yl)cyclopentyl)-3-(naphthalen-1-yl)urea] | 27 nM | > 10000 nM | > 10000 nM | > 10000 nM
N#Cc1nccc(C2(NC(=O)Nc3ccc(C(F)(F)F)cc3)CCCCC2)n1 [Example 90, 1-(1-(2-cyanopyrimidin-4-yl)cyclohexyl)-3-(4-(trifluoromethyl)phenyl)urea] | 68.2 nM | > 10000 nM | > 10000 nM | > 10000 nM
N#Cc1nccc(C2(NC(=O)Nc3ccc(I)c(F)c3)CCCCC2)n1 [Example 137, 1-(1-(2-cyanopyrimidin-4-yl)cyclohexyl)-3-(3-fluoro-4-iodophenyl)urea] | 38.2 nM | > 10000 nM | > 10000 nM | 6220 nM
N#Cc1nccc(C2(NC(=O)Nc3ccc(Br)cc3F)CCCCC2)n1 [Example 134, 1-(4-bromo-2-fluorophenyl)-3-(1-(2-cyanopyrimidin-4-yl)cyclohexyl)urea] | 5.3 nM | > 10000 nM | > 10000 nM | > 10000 nM
N#Cc1nccc(C2(NC(=O)Nc3ccc(-c4ccc(C(=O)O)cc4)c(C(F)(F)F)c3)CCCCC2)n1 [Example 163, 4′-(3-(1-(2-cyanopyrimidin-4-yl)cyclohexyl)ureido)-2′-(trifluoromethyl)-[1,1′-biphenyl]-4-carboxylic acid] | 25.2 nM | > 10000 nM | > 10000 nM | 3370 nM
N#Cc1nccc(C2(NC(=O)Nc3ccc(-c4ccc(C5CCN(C6CC6)CC5)cc4)c(F)c3)CCCCC2)n1 [Example 168, 1-(1-(2-cyanopyrimidin-4-yl)cyclohexyl)-3-(4′-(1-cyclopropylpiperidin-4-yl)-2-fluoro-[1,1′-biphenyl]-4-yl)urea] | 0.3 nM | > 10000 nM | > 10000 nM | > 10000 nM
N#Cc1nccc(C2(NC(=O)Nc3ccc(Nc4ccccc4)cc3)CCCCC2)n1 [Example 101, 1-(1-(2-cyanopyrimidin-4-yl)cyclohexyl)-3-(4-(phenylamino)phenyl)urea] | 21.7 nM | > 10000 nM | > 10000 nM | > 10000 nM
N#Cc1nccc(C2(NC(=O)NCc3ccc(F)cc3)CCCC2)n1 [Example 54, 1-(1-(2-cyanopyrimidin-4-yl)cyclopentyl)-3-(4-fluorobenzyl)urea] | 76 nM | > 10000 nM | > 10000 nM | > 10000 nM
